# Results as given in PubChem BioAssay (NCI).
#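 Cultured in 96-well plates, cells were exposed to test compound for 48 hours across five concentrations. Abbreviation: GI50, concentration required for 50% inhibition of growth. At the TGI there is no net growth.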
# How the values were obtained:
# Test in all cases: inhibition of tumour cell growth, NCI panel, 48 h
# NCI-H522 lung = system: NCI-H522 lung
# 786-0 renal = system: 786-0 renal
# OVCAR-8 ovarian = system: OVCAR-8 ovarian
# HCT-15 colon = system: HCT-15 colon
# HCC-2998 colon = system: HCC-2998 colon
# UACC-257 melanoma = system: UACC-257 melanoma
# RXF 393 renal = system: RXF 393 renal
# OVCAR-3 ovarian = system: OVCAR-3 ovarian
# DU-145 prostate = system: DU-145 prostate
# UACC-62 melanoma = system: UACC-62 melanoma
# SR leukemia = system: SR leukemia
# MDA-MB-231 breast = system: MDA-MB-231 breast
# IGROV1 ovarian = system: IGROV1 ovarian
# SF-268 CNS = system: SF-268 CNS
# ACHN renal = system: ACHN renal
# MCF7 breast = system: MCF7 breast
# K-562 leukemia = system: K-562 leukemia
# NCI/ADR-RES ovarian = system: NCI/ADR-RES ovarian
# SK-MEL-28 melanoma = system: SK-MEL-28 melanoma
# MDA-MB-435 = system: MDA-MB-435
# HL-60(TB) leukemia = system: HL-60(TB) leukemia
# SN12C renal = system: SN12C renal
# BT-549 breast = system: BT-549 breast
# UO-31 renal = system: UO-31 renal
# SF-295 CNS = system: SF-295 CNS
# A549 NSCLC = system: A549 NSCLC
# NCI-H460 lung = system: NCI-H460 lung
# NCI-H226 lung = system: NCI-H226 lung
# A498 renal = system: A498 renal
# LOX IMVI melanoma = system: LOX IMVI melanoma
# HT29 colon = system: HT29 colon
# EKVX NSCLC = system: EKVX NSCLC
# SF-539 CNS = system: SF-539 CNS
# SK-MEL-2 melanoma = system: SK-MEL-2 melanoma
# COLO 205 colon = system: COLO 205 colon
# HS 578T breast = system: HS 578T breast
# HOP-92 NSCLC = system: HOP-92 NSCLC
# HOP-62 NSCLC = system: HOP-62 NSCLC
# OVCAR-5 ovarian = system: OVCAR-5 ovarian
# HCT-116 colon = system: HCT-116 colon
# OVCAR-4 ovarian = system: OVCAR-4 ovarian
# PC-3 prostate = system: PC-3 prostate
# TK-10 renal = system: TK-10 renal
# M14 melanoma = system: M14 melanoma
# U251 CNS = system: U251 CNS
# MALME-3M melanoma = system: MALME-3M melanoma
# SNB-19 CNS = system: SNB-19 CNS
# MOLT-4 leukemia = system: MOLT-4 leukemia
# SK-MEL-5 melanoma = system: SK-MEL-5 melanoma
# SK-OV-3 ovarian = system: SK-OV-3 ovarian
# NCI-H23 lung = system: NCI-H23 lung
# KM12 colon = system: KM12 colon
# CAKI-1 renal = system: CAKI-1 renal
# T-47D breast = system: T-47D breast
# SW-620 colon = system: SW-620 colon
smiles,measurement,setting,value
OCC#Cc1ccccc1C#CCCCCCCC#Cc1ccccc1C#CCO,GI50,NCI-H522 lung,0.882 µM
same,GI50,786-0 renal,17.3 µM
same,TGI,786-0 renal,31.1 µM
same,GI50,OVCAR-8 ovarian,17 µM
same,TGI,OVCAR-8 ovarian,35.8 µM
same,GI50,HCT-15 colon,23.2 µM
same,TGI,HCT-15 colon,59.6 µM
same,GI50,HCC-2998 colon,17.7 µM
same,TGI,HCC-2998 colon,31.5 µM
same,GI50,UACC-257 melanoma,18.9 µM
same,TGI,UACC-257 melanoma,34.5 µM
same,GI50,RXF 393 renal,16.8 µM
same,TGI,RXF 393 renal,33.6 µM
same,GI50,OVCAR-3 ovarian,18.3 µM
same,TGI,OVCAR-3 ovarian,33.4 µM
same,GI50,DU-145 prostate,19.1 µM
same,TGI,DU-145 prostate,35.1 µM
same,GI50,UACC-62 melanoma,16.8 µM
same,TGI,UACC-62 melanoma,31.4 µM
same,GI50,SR leukemia,16 µM
same,TGI,SR leukemia,34.6 µM
same,GI50,MDA-MB-231 breast,9.97 µM
same,TGI,MDA-MB-231 breast,24.8 µM
same,GI50,IGROV1 ovarian,7.97 µM
same,TGI,IGROV1 ovarian,44.3 µM
same,GI50,SF-268 CNS,16.2 µM
same,TGI,SF-268 CNS,32.5 µM
same,GI50,ACHN renal,17.4 µM
same,TGI,ACHN renal,31.5 µM
same,GI50,MCF7 breast,18.4 µM
same,TGI,MCF7 breast,40.7 µM
same,GI50,K-562 leukemia,15.8 µM
same,TGI,K-562 leukemia,40.8 µM
same,GI50,NCI/ADR-RES ovarian,17.7 µM
same,TGI,NCI/ADR-RES ovarian,33 µM
same,GI50,SK-MEL-28 melanoma,23.6 µM
same,TGI,SK-MEL-28 melanoma,62.2 µM
same,GI50,MDA-MB-435,18.1 µM
same,TGI,MDA-MB-435,34.1 µM
same,GI50,HL-60(TB) leukemia,25.2 µM
same,TGI,HL-60(TB) leukemia,48.5 µM
same,GI50,SN12C renal,15.8 µM
same,TGI,SN12C renal,31.1 µM
same,GI50,BT-549 breast,20.2 µM
same,TGI,BT-549 breast,37.9 µM
same,GI50,UO-31 renal,24 µM
same,TGI,UO-31 renal,> 53.1 µM
same,GI50,SF-295 CNS,14.6 µM
same,TGI,SF-295 CNS,28.6 µM
same,GI50,A549 NSCLC,17.2 µM
same,TGI,A549 NSCLC,33.9 µM
same,GI50,NCI-H460 lung,20.5 µM
same,TGI,NCI-H460 lung,47.4 µM
same,GI50,NCI-H226 lung,16.4 µM
same,TGI,NCI-H226 lung,33.1 µM
same,GI50,A498 renal,21.5 µM
same,TGI,A498 renal,36.1 µM
same,GI50,LOX IMVI melanoma,18 µM
same,TGI,LOX IMVI melanoma,34.7 µM
same,GI50,HT29 colon,22.7 µM
same,TGI,HT29 colon,> 75.9 µM
same,GI50,EKVX NSCLC,17.5 µM
same,TGI,EKVX NSCLC,32.7 µM
same,GI50,SF-539 CNS,18.7 µM
same,TGI,SF-539 CNS,32.8 µM
same,GI50,SK-MEL-2 melanoma,34.6 µM
same,TGI,SK-MEL-2 melanoma,> 100 µM
same,GI50,COLO 205 colon,18.8 µM
same,TGI,COLO 205 colon,36.4 µM
same,GI50,HS 578T breast,18.2 µM
same,TGI,HS 578T breast,39.1 µM
same,GI50,HOP-92 NSCLC,13.1 µM
same,TGI,HOP-92 NSCLC,26.5 µM
same,GI50,HOP-62 NSCLC,9.78 µM
same,TGI,HOP-62 NSCLC,25.8 µM
same,GI50,OVCAR-5 ovarian,17 µM
same,TGI,OVCAR-5 ovarian,30.7 µM
same,GI50,HCT-116 colon,10.7 µM
same,TGI,HCT-116 colon,24.5 µM
same,GI50,OVCAR-4 ovarian,18.4 µM
same,TGI,OVCAR-4 ovarian,45.6 µM
same,GI50,PC-3 prostate,15.9 µM
same,TGI,PC-3 prostate,33.3 µM
same,GI50,TK-10 renal,19.2 µM
same,TGI,TK-10 renal,34.2 µM
same,GI50,M14 melanoma,5.64 µM
same,TGI,M14 melanoma,22.9 µM
same,GI50,U251 CNS,18.2 µM
same,TGI,U251 CNS,34.1 µM
same,GI50,MALME-3M melanoma,15.7 µM
same,TGI,MALME-3M melanoma,30.1 µM
same,GI50,SNB-19 CNS,18.6 µM
same,TGI,SNB-19 CNS,34.2 µM
same,GI50,MOLT-4 leukemia,11.1 µM
same,TGI,MOLT-4 leukemia,30.8 µM
same,GI50,SK-MEL-5 melanoma,17 µM
same,TGI,SK-MEL-5 melanoma,31.3 µM
same,GI50,SK-OV-3 ovarian,15.8 µM
same,TGI,SK-OV-3 ovarian,30.5 µM
same,GI50,NCI-H23 lung,17.1 µM
same,TGI,NCI-H23 lung,30.9 µM
same,GI50,KM12 colon,18.1 µM
same,TGI,KM12 colon,37.1 µM
same,GI50,CAKI-1 renal,17.4 µM
same,TGI,CAKI-1 renal,32.8 µM
same,GI50,T-47D breast,18.1 µM
same,TGI,T-47D breast,33.7 µM
same,GI50,SW-620 colon,22.2 µM
same,TGI,SW-620 colon,41.6 µM
